Data published in PMC9574867, “Discovery and Characterization of Synthesized and FDA-Approved Inhibitors of Clostridial and Bacillary Collagenases” (Journal of Medicinal Chemistry, 2022).
“Also recorded” adds a separate entry of the source. Where two headings read alike, the source gives them in different places.

Key:
in vitro [1] = conditions: dog, MDCK II cells (Madin–Darby canine kidney II)
COX-1 = COX-1 (Homo sapiens, UniProt P23219); assay: Human off-target inhibition, COX-1; type: biochemical
Description: (§1) To assess the selectivity of the compounds over human MMPs and on other bacterial collagenases, selected compounds were tested against ColG-CU and ColH-PD from C. histolyticum and ColA-CU from B. cereus strain ATCC14579. In addition, the compounds were tested on catalytic domains of three human MMPs, which are characterized by different depths of the S1′ binding pocket (MMP-1 (shallow), −2 (intermediate), and −3 (deep)). They were also tested against other important human off-targets, which are involved in gene expression and the processing of TNF-α; these include HDAC-3, -8, TACE (ADAM-17),[33],[34] and COX-1.

ColQ1-CU [2] = molecular target: T1, ColQ1-CU (Bacillus cereus, UniProt B9J3S4); type: biochemical, B. cereus
ColG-CU = ColG-CU (Hathewaya histolytica, UniProt Q9X721); type: biochemical, C. histolyticum; conditions: rapid dilution
ColQ1-CU [3] = molecular target: T1, ColQ1-CU; type: binding, B. cereus; conditions: intact protein HPLC-MS, overnight treatment
[4] = tested on: B. cereus AH187 infection; type: in vivo, Galleria mellonella; conditions: for Survival of infected larvae vs control without inhibitor: 37 °C, 3 days
[5] = tested on: NHDF cells infected with B. cereus; assay: NHDF infection model, LDH release; type: cell-based, human; conditions: 5 h
Description: We further evaluated the effect of the diphosphonate and hydroxamate compounds on cell morphology, the fibrillar collagen content of the ECM, and cell viability in the infection model. […] Above a concentration of 25 μM, they were both able to sustain the cells during infection. The cells stayed attached and maintained their spindle shape (Figures S7 and S8), and above 50 μM, we observed a significant reduction in LDH release, indicating higher cell viability.
NHDF cells (1 × 10^5, Promo Cell C-12302) per well were seeded in 24-well plates (Greiner) with DMEM medium (Gibco) containing 10% (v/v) fetal calf serum (FCS, Gibco) and 1% (v/v) glutamine (Gibco). Prior to the treatment, the cells were cultured at 37 °C for 24 h with 5% CO2. In brain heart infusion (BHI) medium, B. cereus AH187 bacteria were cultivated to a mid-exponential phase. The culture was centrifuged at 4000g for 7 min at RT before being rinsed and diluted in PBS. […] The cell morphology was monitored with a light microscope (Olympus) using a 20X objective. […]
The manufacturer’s procedure was followed to measure the released LDH amount in the supernatant of NHDF cells. […] The absorbance was measured at 490 nm with a Tecan Infinite M200 plate reader (Tecan, Grödig, Austria). The cytotoxicity was calculated relative to the control (no inhibitor).

ColA-CU = ColA-CU (Bacillus cereus, UniProt Q81BJ6); type: biochemical, B. cereus; conditions: rapid dilution
HDAC-3 = HDAC-3 (Homo sapiens, UniProt O15379); assay: Human off-target inhibition, HDAC-3; type: biochemical
Description: as §1

in vitro [6] = conditions: human, HEK293 cells (embryonal kidney)
ColH-PD = ColH-PD (Hathewaya histolytica, UniProt Q46085); type: biochemical, C. histolyticum
MMP-3 = molecular target: T2, MMP-3 (Homo sapiens, UniProt P08254); assay: MMP inhibition assay, MMP-3; type: biochemical
T2 construct: catalytic domains of three human MMPs; purchased Sigma-Aldrich
Description: as §1
The MMP inhibition assay (Sigma-Aldrich, Saint Louise, MO) was performed as previously reported and in accordance with the manufacturer’s instructions. The fluorescence signals were measured in a CLARIOstar plate reader (BMG LABTECH, Ortenberg, Germany) at a concentration of 100 μM.

[7] = tested on: Galleria mellonella larvae; assay: Galleria mellonella larvae treated with compound only in PBS; type: in vivo; conditions: no bacteria
Description: Figure 8 Survival analysis of Galleria mellonella larvae treated with Bacillus cereus AH187 with and without 14 and tiludronate disodium. Each curve represents results of three independent experiments; the statistical difference between groups treated with 100, 50, and 25 μM of compound 14 and B. cereus AH187 and with the group treated only with B. cereus AH187 is p < 0.0001, p = 0.0039, and p = 0.0173, respectively. The statistical difference between groups treated with 100 μM tiludronate disodium and with B. cereus AH187 is p = 0.0032 (log-rank test). The survival rate for the larvae treated with compound 14 and tiludronate disodium in PBS was 100%.
G. mellonella larvae were purchased from a fishing store. Injections were carried out using an LA120 syringe pump (Landgraf Laborsysteme, Langenhagen, Germany) equipped with 1 mL Injekt-F tuberculin syringes (B. Braun, Melsungen, Germany) and Sterican 0.30 × […], 30 G × 1.5 needles (B. Braun). The larvae were divided into five groups depending on their treatment: (i) sterile PBS, (ii) no injection, (iii) only compound, (iv) BC AH187 bacterial suspension, and (v) BC AH187 bacterial suspension with compound. Larvae were incubated at 37 °C for 3 days and inspected twice daily. The total larvae used in all three experiments were 40 larvae per group.

T1 sequence (B9J3S4 94-765 limits assumed): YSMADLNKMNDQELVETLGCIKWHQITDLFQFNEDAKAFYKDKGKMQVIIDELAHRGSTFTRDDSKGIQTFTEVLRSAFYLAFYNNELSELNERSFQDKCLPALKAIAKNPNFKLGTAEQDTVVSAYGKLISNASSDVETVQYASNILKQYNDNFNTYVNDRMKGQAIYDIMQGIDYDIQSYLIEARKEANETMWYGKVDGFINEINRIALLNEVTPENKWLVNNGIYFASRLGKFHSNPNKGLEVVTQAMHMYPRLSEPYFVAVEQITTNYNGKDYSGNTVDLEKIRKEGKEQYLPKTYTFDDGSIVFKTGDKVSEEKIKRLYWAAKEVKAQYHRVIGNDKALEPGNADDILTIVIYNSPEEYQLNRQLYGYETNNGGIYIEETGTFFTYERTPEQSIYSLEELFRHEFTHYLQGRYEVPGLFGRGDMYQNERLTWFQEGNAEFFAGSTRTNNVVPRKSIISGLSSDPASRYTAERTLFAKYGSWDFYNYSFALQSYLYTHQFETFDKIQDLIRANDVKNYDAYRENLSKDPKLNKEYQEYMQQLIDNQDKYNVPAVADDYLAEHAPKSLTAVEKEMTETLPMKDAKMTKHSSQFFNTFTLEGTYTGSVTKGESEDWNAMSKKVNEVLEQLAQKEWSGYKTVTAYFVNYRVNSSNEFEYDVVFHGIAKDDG
T2 sequence (P08254 100-272 limits assumed): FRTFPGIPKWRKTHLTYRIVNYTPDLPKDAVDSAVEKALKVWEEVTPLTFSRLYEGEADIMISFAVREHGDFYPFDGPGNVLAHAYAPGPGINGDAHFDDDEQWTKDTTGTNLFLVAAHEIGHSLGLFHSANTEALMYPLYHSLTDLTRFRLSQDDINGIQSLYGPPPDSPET
COX-1, sequence (P23219 24-599): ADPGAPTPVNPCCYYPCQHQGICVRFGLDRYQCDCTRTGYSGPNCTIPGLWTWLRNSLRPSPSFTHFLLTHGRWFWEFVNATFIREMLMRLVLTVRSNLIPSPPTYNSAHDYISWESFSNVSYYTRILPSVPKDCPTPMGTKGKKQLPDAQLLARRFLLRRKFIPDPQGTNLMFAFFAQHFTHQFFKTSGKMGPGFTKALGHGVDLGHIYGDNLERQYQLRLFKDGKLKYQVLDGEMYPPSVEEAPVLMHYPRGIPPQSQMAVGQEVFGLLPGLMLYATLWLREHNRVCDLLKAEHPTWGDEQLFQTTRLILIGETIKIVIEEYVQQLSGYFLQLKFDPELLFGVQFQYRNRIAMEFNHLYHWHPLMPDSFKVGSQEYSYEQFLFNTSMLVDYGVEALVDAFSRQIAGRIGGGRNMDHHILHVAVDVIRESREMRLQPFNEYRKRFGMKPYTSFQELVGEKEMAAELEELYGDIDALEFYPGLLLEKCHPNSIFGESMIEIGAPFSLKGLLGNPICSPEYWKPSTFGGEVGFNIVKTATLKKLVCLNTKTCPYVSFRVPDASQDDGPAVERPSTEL
HDAC-3, sequence (O15379 whole entry): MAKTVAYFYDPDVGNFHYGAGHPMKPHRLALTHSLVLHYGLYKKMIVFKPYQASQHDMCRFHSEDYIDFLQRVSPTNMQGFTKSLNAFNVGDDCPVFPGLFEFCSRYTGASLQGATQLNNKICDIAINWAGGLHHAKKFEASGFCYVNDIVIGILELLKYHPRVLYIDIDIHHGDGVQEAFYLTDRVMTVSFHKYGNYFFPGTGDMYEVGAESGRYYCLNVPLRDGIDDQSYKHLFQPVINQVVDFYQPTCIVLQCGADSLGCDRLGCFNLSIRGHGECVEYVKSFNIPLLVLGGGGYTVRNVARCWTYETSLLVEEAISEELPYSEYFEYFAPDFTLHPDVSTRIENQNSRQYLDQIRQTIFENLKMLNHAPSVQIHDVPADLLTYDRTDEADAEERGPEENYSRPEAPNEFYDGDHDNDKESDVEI
HDAC-3, sequence (Q9Y618 395-489 partner limits assumed): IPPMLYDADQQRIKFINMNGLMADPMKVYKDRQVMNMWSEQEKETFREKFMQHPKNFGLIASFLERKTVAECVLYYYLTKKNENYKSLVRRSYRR
ColA-CU, sequence (Q81BJ6 93-764): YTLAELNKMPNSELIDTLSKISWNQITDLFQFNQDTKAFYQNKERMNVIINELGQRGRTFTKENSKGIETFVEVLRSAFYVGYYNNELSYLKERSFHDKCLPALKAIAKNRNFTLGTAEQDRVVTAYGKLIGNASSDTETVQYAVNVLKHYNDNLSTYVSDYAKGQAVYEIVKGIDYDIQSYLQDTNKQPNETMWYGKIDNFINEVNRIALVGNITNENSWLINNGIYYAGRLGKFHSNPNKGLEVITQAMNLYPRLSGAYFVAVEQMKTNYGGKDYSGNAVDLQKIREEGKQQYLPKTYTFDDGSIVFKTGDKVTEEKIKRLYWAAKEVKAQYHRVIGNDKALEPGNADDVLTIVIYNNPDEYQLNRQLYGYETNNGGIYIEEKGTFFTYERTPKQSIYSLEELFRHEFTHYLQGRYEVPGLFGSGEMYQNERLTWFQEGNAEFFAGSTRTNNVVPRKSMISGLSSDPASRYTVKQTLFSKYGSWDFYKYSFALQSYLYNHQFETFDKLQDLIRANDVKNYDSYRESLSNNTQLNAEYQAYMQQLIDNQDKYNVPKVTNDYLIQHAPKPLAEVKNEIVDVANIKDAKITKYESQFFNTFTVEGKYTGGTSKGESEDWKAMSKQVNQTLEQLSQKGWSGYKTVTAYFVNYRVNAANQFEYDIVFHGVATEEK
ColH-PD, sequence (Q46085 331-721 limits assumed): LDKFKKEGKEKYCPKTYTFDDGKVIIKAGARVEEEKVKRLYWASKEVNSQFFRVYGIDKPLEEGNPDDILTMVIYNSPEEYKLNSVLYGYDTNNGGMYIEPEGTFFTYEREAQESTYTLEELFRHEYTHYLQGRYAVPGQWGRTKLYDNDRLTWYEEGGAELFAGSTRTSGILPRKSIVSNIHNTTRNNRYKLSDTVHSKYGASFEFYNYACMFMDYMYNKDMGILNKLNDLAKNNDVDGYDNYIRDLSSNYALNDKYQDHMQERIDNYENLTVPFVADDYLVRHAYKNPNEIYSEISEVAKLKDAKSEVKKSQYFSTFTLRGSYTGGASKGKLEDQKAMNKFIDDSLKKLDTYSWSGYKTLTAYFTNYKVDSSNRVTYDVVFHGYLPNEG
ColG-CU, sequence (Q9X721 111-786): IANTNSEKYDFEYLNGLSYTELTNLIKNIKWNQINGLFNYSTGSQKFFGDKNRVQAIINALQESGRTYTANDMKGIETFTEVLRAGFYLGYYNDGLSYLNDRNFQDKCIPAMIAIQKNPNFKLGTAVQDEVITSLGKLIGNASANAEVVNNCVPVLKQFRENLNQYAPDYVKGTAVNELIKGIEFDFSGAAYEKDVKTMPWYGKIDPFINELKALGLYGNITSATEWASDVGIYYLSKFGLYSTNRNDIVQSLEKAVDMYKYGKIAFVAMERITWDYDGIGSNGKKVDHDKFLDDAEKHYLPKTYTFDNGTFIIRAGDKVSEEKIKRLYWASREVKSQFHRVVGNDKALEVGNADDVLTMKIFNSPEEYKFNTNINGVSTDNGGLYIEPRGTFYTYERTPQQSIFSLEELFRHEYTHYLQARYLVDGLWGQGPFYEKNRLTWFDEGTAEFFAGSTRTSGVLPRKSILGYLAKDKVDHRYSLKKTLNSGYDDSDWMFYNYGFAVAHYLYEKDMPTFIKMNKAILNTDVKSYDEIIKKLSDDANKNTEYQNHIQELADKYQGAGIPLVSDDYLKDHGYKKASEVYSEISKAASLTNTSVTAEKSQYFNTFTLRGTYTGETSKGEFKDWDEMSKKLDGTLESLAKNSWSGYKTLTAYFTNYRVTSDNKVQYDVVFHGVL

Structure (SMILES) | IC50 (in vitro [1]) | IC50 (COX-1) | Residual activity after rapid dilution (ColQ1-CU [2]; 30 min preincubation at 10-fold IC50, 100-fold dilution) | Reversibility of inhibition, ColQ1-CU (ColQ1-CU [2]; rapid dilution) | Reversibility of inhibition, ColG (ColG-CU) | Covalent modification of ColQ1-CU (ColQ1-CU [3]) | Increase in survival of infected larvae ([4]; 50 μM) | Increase in survival of infected larvae ([4]; 200 μM) | Survival of infected larvae vs control without inhibitor [4] | Concentration above which LDH release was significantly reduced [5] | Reversibility of inhibition, ColA-CU (ColA-CU) | IC50 (HDAC-3) | IC50 (in vitro [6]) | Reversibility of inhibition, ColH (ColH-PD) | IC50 (MMP-3) | Survival rate of larvae treated with compound in PBS [7] | Effect on survival of infected larvae ([4]; 25 μM) | Increase in survival of infected larvae ([4]; 100 μM)
O=P(O)(O)c1nc2cc(Cl)c(Cl)cc2nc1P(=O)(O)O [Compound 13, (6,7-Dichloroquinoxaline-2,3-diyl)bis(phosphonic acid)] | > 200 µM | > 100 µM | less than 9% | very slowly dissociating reversible binder | rapidly reversible inhibitors | No molecular masses displayed a mass shift indicating a covalently bound inhibitor; also recorded: did not result in a covalent modification | 5% | about 35% | ameliorated the survival of the larvae in a dose-dependent manner | above 50 μM | only a minimal inhibition | > 100 µM | 100 µM | reversed compared to ColA | 33 ± 11 µM |  |  | 
O=C(Nc1ccc(Cl)c(Cl)c1)c1ccc2nc(P(=O)(O)O)c(P(=O)(O)O)nc2c1 [Compound 14, (6-((3,4-Dichlorophenyl)carbamoyl)quinoxaline-2,3-diyl)bis(phosphonic acid)] | > 100 µM | > 100 µM |  |  |  |  |  |  | ameliorated the survival of the larvae in a dose-dependent manner | above 50 μM |  | > 100 µM | > 100 µM |  | > 100 µM | 100% | reduced effect | around 50%
